Like-named read-outs stand apart in the source and are kept apart here.
Legend:
[1] = Study in epileptic patients: trough plasma concentrations of BIA 2-005; format: in vivo, humans
Description: This clinical trial was a double-blind, randomized, placebo-controlled study performed by 20 centers in Croatia, Czech Republic, Germany, Lithuania and Poland. The stated objectives of the study were to assess the efficacy and safety of BIA 2-093 as adjunctive therapy in patients with refractory partial epilepsy. In total, 143 patients aged 18-65 years with at least 4 partial-onset seizures per month in spite of treatment with 1 or 2 antiepileptic drugs (AEDs) (e.g., phenytoin, valproate, primidone, phenobarbital, lamotrigine, gabapentin, topiramate or clonazepam) were randomly assigned to one of three groups: treatment with placebo (n=47), BIA 2-093 once-daily (n=50), or BIA 2-093 twice-daily (n=46), during 12 weeks (plus 1 week of tapering off). For the first 4 weeks, daily dose was 400 mg. Then, daily doses were increased to 800 mg (weeks 5-8), and finally to 1200 mg (weeks 9-12). […] See, e.g., Almeida I and Almeida II.
Plasma/serum samples for the "trough" (pre-dose) levels of BIA 2-005 and concomitant AEDs were collected at all visits but V5 (post-study visit). The objective was to characterize the influence of eslicarbazepine acetate on the pharmacokinetic behavior of the concomitant AEDs (e.g., phenytoin, valproate, primidone, phenobarbital, lamotrigine, gabapentin, topiramate, and clonazepam). […] Table 1: Trough plasma concentrations of BIA 2-005 following oral administration of eslicarbazepine acetate once-daily (o.d.) and twice-daily (b.i.d)

[2] = test system: patients with refractory partial epilepsy; test: Study in epileptic patients: efficacy as adjunctive therapy; format: in vivo, humans; conditions: for reduction in the number of seizures: versus baseline; for proportion of responders (50% or greater reduction in seizure frequency vs baseline): ITT
Procedure: The effects of eslicarbazepine acetate in humans was studied in at least the following clinical studies. In the first study, a placebo-controlled therapeutic exploratory study, once-daily and twice-daily dosing was compared in epileptic patients refractory to standard anti-epileptic drug therapy. In the second study, healthy subjects received either a once-daily (o.d.) oral dose of 900 mg of eslicarbazepine acetate or a twice-daily (b.i.d.) dose of 450 mg of eslicarbazepine acetate. In the third study, healthy subjects received single oral doses of eslicarbazepine acetate ranging from 20 mg to 2400 mg, and repeated once-daily (o.d.) oral doses ranging from 400 mg to 2400 mg of eslicarbazepine acetate. This clinical trial was a double-blind, randomized, placebo-controlled study performed by 20 centers in Croatia, Czech Republic, Germany, Lithuania and Poland. The stated objectives of the study were to assess the efficacy and safety of BIA 2-093 as adjunctive therapy in patients with refractory partial epilepsy. […] For the first 4 weeks, daily dose was 400 mg. Then, daily doses were increased to 800 mg (weeks 5-8), and finally to 1200 mg (weeks 9-12). […] See, […] and Almeida II. The proportion of patients with a 50% or greater reduction in seizure frequency in the treatment period compared to the baseline period in the intention-to-treat (ITT) population (n=143) was the primary efficacy endpoint. […] The proportion of responders in the once-daily group (54%) was also higher than in the twice-daily (41%) group. […] At this dose level, no significant difference was found between the twice-daily and the placebo groups. Secondary endpoints include the reduction in total seizure frequency, proportion of seizure-free patients, distribution of responders, comparison of once and twice daily regimens, and investigator's and patient's global evaluation.

[3] = Metabolic profile in liver microsomes, chiral analysis; format: in vitro ADME; conditions: liver microsomes from rats, dogs, monkeys and humans, not the R(-) form
[4] = test system: voltage-gated sodium channel (VGSC); conditions: compared with carbamazepine; cited from earlier work
[5] = after oral administration; below LOQ of the assay; cited from earlier work
[6] = not given; remark: listed apart in the source
[7] = Trial B: pharmacokinetics following single and repeated doses in healthy young male subjects; format: in vivo, humans; conditions: in a minor extent to R-licarbazepine
Procedure: The study integrated the results of three double-blind, randomized, placebo-controlled trials. To measure the pharmacokinetics of eslicarbazepine acetate following single doses, oral single doses of eslicarbazepine acetate ranging from 20 mg to 2400 mg were administered to healthy young male subjects (6 subjects per dose). The pharmacokinetics of eslicarbazepine acetate following repeated doses were measured by administering repeated oral doses ranging from 400 mg to 2400 mg of eslicarbazepine acetate to healthy young male subjects (6 subjects per dose) over a period of 8 days. Analytical test methods and experimental procedures were similar to those described for Trial A above.

NC(=O)N1c2ccccc2CC(O)c2ccccc21 (stereo not drawn) [BIA 2-005]
extent of systemic exposure versus dose (oral eslicarbazepine acetate, healthy subjects): approximately dose-proportional
total amount recovered in the urine (within 12 hours post-dose): about 20%
total amount recovered in the urine (within 24 hours post-dose): ~40%
Trough plasma concentration, Mean (sd) ([1]; 400 mg/day eslicarbazepine acetate, b.i.d. group): 4.9(2.3) µg/mL
Trough plasma concentration, Mean (sd) ([1]; 400 mg/day eslicarbazepine acetate, o.d. group): 4.0 (3.2) µg/mL
Trough plasma concentration, Mean (sd) ([1]; 800 mg/day eslicarbazepine acetate, b.i.d. group): 13.5 (9.6) µg/mL
Trough plasma concentration, Mean (sd) ([1]; 800 mg/day eslicarbazepine acetate, o.d. group): 10.7(7.0) µg/mL
Trough plasma concentration, Mean (sd) ([1]; 1200 mg/day eslicarbazepine acetate, b.i.d. group): 15.5 (8.8) µg/mL
Trough plasma concentration, Mean (sd) ([1]; 1200 mg/day eslicarbazepine acetate, o.d. group): 14.6 (8.8) µg/mL

CC(=O)O[C@H]1Cc2ccccc2N(C(N)=O)c2ccccc21 [eslicarbazepine acetate]
reduction in the number of seizures ([2]; 400 mg once-daily): 38.9%
reduction in the number of seizures ([2]; 400 mg twice-daily): 20.2%
reduction in the number of seizures ([2]; 800 mg once-daily): 55.8%
reduction in the number of seizures ([2]; 800 mg twice-daily): 38.1%
proportion of responders (50% or greater reduction in seizure frequency vs baseline) ([2]; 800 mg/day (weeks 5-8), once-daily group): 58%
proportion of responders (50% or greater reduction in seizure frequency vs baseline) ([2]; 800 mg/day (weeks 5-8), twice-daily group): 33%
reduction in the number of seizures ([2]; 1200 mg once-daily): 59.5%
reduction in the number of seizures ([2]; 1200 mg twice-daily): 47.5%
proportion of responders (50% or greater reduction in seizure frequency vs baseline) ([2]; 1200 mg/day (weeks 9-12), once-daily group): 54%
proportion of responders (50% or greater reduction in seizure frequency vs baseline) ([2]; 1200 mg/day (weeks 9-12), twice-daily group): 41%
patients seizure-free ([2]; end of the 12-week treatment phase, once-daily group): 27.9%
assessment of efficacy by the investigator (CGI - Clinical Global Impression) and of acceptability by patient ([2]; once-daily group compared with the other groups): rated best
metabolite formed in liver microsomes [3]: S(+) enantiomer of licarbazepine
affinity for the resting state of the channel, lower than that of carbamazepine [4]: about 3 fold
plasma concentrations of the parent drug [5]: < 10 ng/mL
metabolism of eslicarbazepine acetate ([6]; in a minor extent to R-licarbazepine): extensively metabolized to eslicarbazepine
plasma concentrations of parent drug ([6]; limit of quantification 10 ng/mL): below the limit of quantification
metabolism of eslicarbazepine acetate [7]: extensively metabolized to eslicarbazepine

— EP2380575B1, “Eslicarbazepine acetate and use” (Bial-Portela & CA, S.A., priority 2005, dated 2006)
